From ChEMBL document CHEMBL3045084, “Synthesis, antitubercular activity, and QSAR analysis of substituted nitroaryl analogs: chalcone, pyrazole, isoxazole, and pyrimidines” (2013)
Converted amounts (≈) assume the structure as drawn.

Tested on: Mycobacterium tuberculosis
Experiment: Antitubercular activity against Mycobacterium tuberculosis H37Rv ATCC 27294 assessed as growth inhibition after 28 days by agar dilution method
Format: functional
Conditions: for MIC: Mycobacterium tuberculosis, H37Rv ATCC 27294, 672 h

O=C(/C=C/c1ccc(Cl)cc1)c1ccc([N+](=O)[O-])cc1
-logMIC: 4.362 | MIC: 43.5 µM (≈ 12.5 µg/mL)

CN(C)c1ccc(/C=C/C(=O)c2ccc([N+](=O)[O-])cc2)cc1
-logMIC: 4.074 | MIC: 84.5 µM (≈ 25 µg/mL)

CN(C)c1ccc(C2CC(c3ccc([N+](=O)[O-])cc3)=NN2)cc1 (stereo not drawn)
-logMIC: 3.489 | MIC: 323 µM (≈ 100 µg/mL)

COc1cc(C2CC(c3ccc([N+](=O)[O-])cc3)=NC(=O)N2)cc(OC)c1OC (stereo not drawn)
-logMIC: 3.585 | MIC: 260 µM (≈ 100 µg/mL)

O=[N+]([O-])c1ccc(C2=NC(=S)NC(c3ccc(Cl)cc3Cl)C2)cc1 (stereo not drawn)
-logMIC: 4.481 | MIC: 32.9 µM (≈ 12.5 µg/mL)

COc1ccc(C2CC(c3ccc([N+](=O)[O-])cc3)=NC(=S)N2)cc1OC (stereo not drawn)
-logMIC: 3.869 | MIC: 135 µM (≈ 50.1 µg/mL)

COc1ccc(OC)c(C2CC(c3ccc([N+](=O)[O-])cc3)=NC(=S)N2)c1 (stereo not drawn)
-logMIC: 3.869 | MIC: 135 µM (≈ 50.1 µg/mL)

O=[N+]([O-])c1ccc(C2=NC(=S)NC(c3ccc(F)cc3)C2)cc1 (stereo not drawn)
-logMIC: 4.418 | MIC: 38 µM (≈ 12.5 µg/mL)

O=[N+]([O-])c1ccc(C2=NC(=S)NC(c3ccc(Br)cc3)C2)cc1 (stereo not drawn)
-logMIC: 4.492 | MIC: 32 µM (≈ 12.5 µg/mL)

COc1cc(C2CC(c3ccc([N+](=O)[O-])cc3)=NC(=S)N2)cc(OC)c1OC (stereo not drawn)
-logMIC: 3.601 | MIC: 249 µM (≈ 100 µg/mL)

CN(C)c1ccc(C2CC(c3ccc([N+](=O)[O-])cc3)=NC(=S)N2)cc1 (stereo not drawn)
-logMIC: 3.848 | MIC: 141 µM (≈ 50.1 µg/mL)

COc1cccc(C2CC(c3ccc([N+](=O)[O-])cc3)=NO2)c1 (stereo not drawn)
MIC: > 169 µM

O=[N+]([O-])c1ccc(C2=NOC(c3ccc(Cl)cc3)C2)cc1 (stereo not drawn)
-logMIC: 4.08 | MIC: 83.3 µM (≈ 25.2 µg/mL)

O=[N+]([O-])c1ccc(C2=NOC(c3cccc(Cl)c3)C2)cc1 (stereo not drawn)
MIC: > 83.3 µM

COc1ccc(C2CC(c3ccc([N+](=O)[O-])cc3)=NO2)cc1OC (stereo not drawn)
-logMIC: 4.116 | MIC: 76.7 µM (≈ 25.2 µg/mL)

O=[N+]([O-])c1ccc(C2=NOC(c3ccc(Cl)cc3Cl)C2)cc1 (stereo not drawn)
-logMIC: 4.428 | MIC: 37.3 µM (≈ 12.6 µg/mL)

O=[N+]([O-])c1ccc(C2=NOC(c3ccc(F)cc3)C2)cc1 (stereo not drawn)
-logMIC: 4.357 | MIC: 44 µM (≈ 12.6 µg/mL)

O=C(/C=C/c1ccc(Br)cc1)c1ccc([N+](=O)[O-])cc1
-logMIC: 5.026 | MIC: 9.43 µM (≈ 3.13 µg/mL)

COc1cccc(C2CC(c3ccc([N+](=O)[O-])cc3)=NC(=O)N2)c1 (stereo not drawn)
-logMIC: 3.51 | MIC: 308 µM (≈ 100 µg/mL)

COc1ccc(C2CC(c3ccc([N+](=O)[O-])cc3)=NC(=O)N2)cc1 (stereo not drawn)
-logMIC: 3.811 | MIC: 154 µM (≈ 50.1 µg/mL)

O=C1N=C(c2ccc([N+](=O)[O-])cc2)CC(c2ccc(Cl)cc2)N1 (stereo not drawn)
-logMIC: 4.419 | MIC: 38 µM (≈ 12.5 µg/mL)

O=C1N=C(c2ccc([N+](=O)[O-])cc2)CC(c2cccc(Cl)c2)N1 (stereo not drawn)
-logMIC: 4.419 | MIC: 38 µM (≈ 12.5 µg/mL)

COc1ccc(C2CC(c3ccc([N+](=O)[O-])cc3)=NC(=O)N2)cc1OC (stereo not drawn)
-logMIC: 3.548 | MIC: 282 µM (≈ 100 µg/mL)

COc1ccc(OC)c(C2CC(c3ccc([N+](=O)[O-])cc3)=NC(=O)N2)c1 (stereo not drawn)
MIC: > 282 µM

O=C1N=C(c2ccc([N+](=O)[O-])cc2)CC(c2ccc(Cl)cc2Cl)N1 (stereo not drawn)
-logMIC: 4.462 | MIC: 34.3 µM (≈ 12.5 µg/mL)

O=C1N=C(c2ccc([N+](=O)[O-])cc2)CC(c2ccc(F)cc2)N1 (stereo not drawn)
-logMIC: 4.697 | MIC: 20 µM (≈ 6.26 µg/mL)

O=C1N=C(c2ccc([N+](=O)[O-])cc2)CC(c2ccc(Br)cc2)N1 (stereo not drawn)
-logMIC: 4.474 | MIC: 33.4 µM (≈ 12.5 µg/mL)

CN(C)c1ccc(C2CC(c3ccc([N+](=O)[O-])cc3)=NC(=O)N2)cc1 (stereo not drawn)
-logMIC: 3.527 | MIC: 296 µM (≈ 100 µg/mL)

COc1cccc(C2CC(c3ccc([N+](=O)[O-])cc3)=NC(=S)N2)c1 (stereo not drawn)
-logMIC: 3.531 | MIC: 293 µM (≈ 100 µg/mL)

COc1ccc(C2CC(c3ccc([N+](=O)[O-])cc3)=NC(=S)N2)cc1 (stereo not drawn)
-logMIC: 3.531 | MIC: 293 µM (≈ 100 µg/mL)

O=[N+]([O-])c1ccc(C2=NC(=S)NC(c3ccc(Cl)cc3)C2)cc1 (stereo not drawn)
-logMIC: 4.439 | MIC: 36.2 µM (≈ 12.5 µg/mL)

O=[N+]([O-])c1ccc(C2=NC(=S)NC(c3cccc(Cl)c3)C2)cc1 (stereo not drawn)
-logMIC: 4.138 | MIC: 72.5 µM (≈ 25.1 µg/mL)

COc1ccc(/C=C/C(=O)c2ccc([N+](=O)[O-])cc2)cc1OC
MIC: > 79.9 µM

COc1ccc(OC)c(/C=C/C(=O)c2ccc([N+](=O)[O-])cc2)c1
-logMIC: 4.098 | MIC: 79.9 µM (≈ 25 µg/mL)

O=C(/C=C/c1ccc(Cl)cc1Cl)c1ccc([N+](=O)[O-])cc1
-logMIC: 5.315 | MIC: 4.84 µM (≈ 1.56 µg/mL)

O=C(/C=C/c1ccc(F)cc1)c1ccc([N+](=O)[O-])cc1
-logMIC: 4.938 | MIC: 11.6 µM (≈ 3.13 µg/mL)

COc1cccc(C2CC(c3ccc([N+](=O)[O-])cc3)=NN2)c1 (stereo not drawn)
-logMIC: 3.47 | MIC: 339 µM (≈ 101 µg/mL)

COc1ccc(C2CC(c3ccc([N+](=O)[O-])cc3)=NN2)cc1 (stereo not drawn)
MIC: > 339 µM

O=[N+]([O-])c1ccc(C2=NNC(c3ccc(Cl)cc3)C2)cc1 (stereo not drawn)
-logMIC: 4.079 | MIC: 83.6 µM (≈ 25.2 µg/mL)

O=[N+]([O-])c1ccc(C2=NNC(c3cccc(Cl)c3)C2)cc1 (stereo not drawn)
-logMIC: 4.079 | MIC: 83.6 µM (≈ 25.2 µg/mL)

COc1ccc(C2CC(c3ccc([N+](=O)[O-])cc3)=NN2)cc1OC (stereo not drawn)
-logMIC: 3.813 | MIC: 154 µM (≈ 50.4 µg/mL)

COc1ccc(OC)c(C2CC(c3ccc([N+](=O)[O-])cc3)=NN2)c1 (stereo not drawn)
-logMIC: 3.813 | MIC: 154 µM (≈ 50.4 µg/mL)

O=[N+]([O-])c1ccc(C2=NNC(c3ccc(Cl)cc3Cl)C2)cc1 (stereo not drawn)
-logMIC: 4.427 | MIC: 37.4 µM (≈ 12.6 µg/mL)

O=[N+]([O-])c1ccc(C2=NNC(c3ccc(F)cc3)C2)cc1 (stereo not drawn)
-logMIC: 4.355 | MIC: 44.2 µM (≈ 12.6 µg/mL)

COc1cc(C2CC(c3ccc([N+](=O)[O-])cc3)=NN2)cc(OC)c1OC (stereo not drawn)
-logMIC: 3.852 | MIC: 141 µM (≈ 50.3 µg/mL)

O=[N+]([O-])c1ccc(C2=NNC(c3ccc(Br)cc3)C2)cc1 (stereo not drawn)
-logMIC: 4.139 | MIC: 72.7 µM (≈ 25.2 µg/mL)

COc1cccc(/C=C/C(=O)c2ccc([N+](=O)[O-])cc2)c1
-logMIC: 4.054 | MIC: 88.3 µM (≈ 25 µg/mL)

COc1ccc(/C=C/C(=O)c2ccc([N+](=O)[O-])cc2)cc1
MIC: > 88.3 µM

O=C(/C=C/c1cccc(Cl)c1)c1ccc([N+](=O)[O-])cc1
-logMIC: 4.362 | MIC: 43.5 µM (≈ 12.5 µg/mL)

CC[C@@H](CO)NCCN[C@@H](CC)CO [ETHAMBUTOL]
-logMIC: 5.117 | MIC: 7.63 µM (≈ 1.56 µg/mL)

NNC(=O)c1ccncc1 [ISONIAZID]
-logMIC: 6.447 | MIC: 0.357 µM (≈ 0.049 µg/mL)

CO[C@H]1/C=C/O[C@@]2(C)Oc3c(C)c(O)c4c(O)c(c(/C=N/N5CCN(C)CC5)c(O)c4c3C2=O)NC(=O)/C(C)=C\C=C\[C@H](C)[C@H](O)[C@@H](C)[C@@H](O)[C@@H](C)[C@H](OC(C)=O)[C@@H]1C [RIFAMPIN]
-logMIC: 6.924 | MIC: 0.119 µM (≈ 0.0979 µg/mL)
